Measurements from patent US20250320204A1 (RIBOSCIENCE LLC, priority 2023, published 2025).

Molecular target: T1, ENPP1 (Homo sapiens, UniProt P22413)
T1 sequence (P22413 1-925): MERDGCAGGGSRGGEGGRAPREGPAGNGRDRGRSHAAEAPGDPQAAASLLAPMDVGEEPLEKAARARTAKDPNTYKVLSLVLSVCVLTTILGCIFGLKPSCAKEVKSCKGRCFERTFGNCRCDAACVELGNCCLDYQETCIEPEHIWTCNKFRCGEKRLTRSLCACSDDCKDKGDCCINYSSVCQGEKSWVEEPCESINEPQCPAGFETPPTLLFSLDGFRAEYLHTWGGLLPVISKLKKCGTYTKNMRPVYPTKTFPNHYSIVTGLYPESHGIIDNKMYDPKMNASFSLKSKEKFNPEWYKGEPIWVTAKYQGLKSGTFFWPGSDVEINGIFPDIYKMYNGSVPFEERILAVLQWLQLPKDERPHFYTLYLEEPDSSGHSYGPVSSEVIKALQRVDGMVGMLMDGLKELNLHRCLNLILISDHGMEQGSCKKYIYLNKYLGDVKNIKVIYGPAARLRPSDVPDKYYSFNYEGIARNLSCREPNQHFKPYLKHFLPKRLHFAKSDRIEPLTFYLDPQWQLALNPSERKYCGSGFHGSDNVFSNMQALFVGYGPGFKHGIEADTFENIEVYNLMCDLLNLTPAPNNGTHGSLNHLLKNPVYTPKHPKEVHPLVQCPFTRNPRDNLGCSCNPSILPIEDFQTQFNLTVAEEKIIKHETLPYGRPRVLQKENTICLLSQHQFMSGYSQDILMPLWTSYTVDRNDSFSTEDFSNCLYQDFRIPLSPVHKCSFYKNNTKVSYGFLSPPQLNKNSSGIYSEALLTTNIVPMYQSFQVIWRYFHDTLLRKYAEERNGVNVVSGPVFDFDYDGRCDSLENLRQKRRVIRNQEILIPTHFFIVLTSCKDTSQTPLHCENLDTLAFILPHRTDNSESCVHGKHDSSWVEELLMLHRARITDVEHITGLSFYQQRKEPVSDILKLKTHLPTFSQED
Assay: Measurement of pNP-TMP hydrolysis by ENPP1
Format: biochemical
Conditions: pNP-TMP substrate 500 μM, Km 232 μM; Ki from IC50 by Cheng-Prusoff
Method: Measurement of pNP-TMP hydrolysis by ENPP1
p-Nitrophenyl thymidine 5′-monophosphate (pNP-TMP) is a synthesized substrate for ENPP1. The ENPP1 enzyme activity assay with pNP-TMP substrate was conducted as follows:
First, in a 60 μl reaction, 7.5 ng purified ENPP1 was mixed with 1.2 μl compounds of Formula (I) (test compound) ranging from 13.7 nM to 10 μM. Incubation of ENPP1 with compounds was set at 25° C. for 10 min. Reactions with DMSO only (with ENPP1 but no compound) gave the fastest reaction (MAX Activity). For each compound dilution, wells with assay buffer (50 mM Tris -HCl, pH8.8, 250 mM NaCl, 0.1 mg/ml BSA) and test compounds but no ENPP1 were included as controls for the subtraction of test compound derived absorbance at 405 nm.
Second, after 10 minutes incubation of ENPP1 and test compound, the assay was initiated by transferring 50 μl of the above mentioned ENPP1/test compound reaction into 50 μl of 1 mM pNP-TMP in assay buffer results in a 100 μl total reaction in non-binding surface clear bottom 96 well plates. Absorbance at 405 nm was recorded immediately in kinetic mode by PerkinElmer 2300 Enspire multimode plate reader.
For each inhibitor, the specific ENPP1 activity was calculated using the following equation: ENPP1 activity (pmol/min/μg)=Adjusted Vmax (OD405 nm/min) X conversion factor (pmol/OD405 nm)/amount of enzyme (μg)
Adjusted Vmax=V0X (Km+(S))/(S). In this assay, Km=232 μM, (S)=500 μM. Adjusted Vmax=1.464 X V0.
V0=(OD405 nm with ENPP1-OD405 nm ENPP1 blank)/minutes. OD405 nm was plotted, with blank subtracted, against time (minutes), the initial linear rate is V0.
The conversion factor (pmol/OD405 nm), was determined by plotting the amount of standard, 4-Nitrophenol (Sigma -Aldrich, Catalog #241326), against absorbance at 405 nm. The slope is the conversion factor. The percent ENPP1 activity for each sample was calculated using the following equation: […]
To determine the IC50 for each compound, compound concentration values and percent enzyme activity values were inserted into GraphPad Prism (GraphPad Prism version 9.0 for Windows, GraphPad Software, La Jolla California USA, www.graphpad.com), and Prism's Transform analysis was used to convert the x-axis values (compound concentration) to logarithms. A sigmoidal variable slope nonlinear regression analysis was performed using the following equation: Y=Bottom+ (Top-Bottom)/(1+10^((Log IC50″X) *HillSlope)).
Ki values for each compound were calculated from the observed IC50 from GraphPad analysis using the Cheng-Prusoff equation: Ki=IC50/(1+(S)/KM). (S) here is 500 μM and KM is determined to be 232 μM.

Ki | SMILES
10 to 100 nM | CS(=N)(=O)CC1CC2(C1)CN(c1ncnc3c(O)nccc13)C2 (single isomer, unassigned) [Example 2b, ((2-(8-hydroxypyrido[3,4-d]pyrimidin-4-yl)-2-azaspiro[3.3]heptan-6-yl)methyl) (imino)(methyl)-lambda6-sulfanone]
10 to 100 nM | N=[S@](=O)(c1cccc(COc2ccnc3c(OCF)nccc23)c1)C1CC1 (single isomer, unassigned) [Example 42]
< 10 nM | COc1nccc2c(OCc3cc(F)cc([S@](=N)(=O)C4CC4)c3)ccnc12 (single isomer, unassigned) [Example 68]
10 to 100 nM | COc1nccc2c(OCc3cc(F)cc([S@](C)(=N)=O)c3)ccnc12 (single isomer, unassigned) [Example 70]
10 to 100 nM | C[S@@](=N)(=O)c1cccc(COc2ccnc3c(OCF)nccc23)c1 (single isomer, unassigned) [Example 78]
< 10 nM | CS(=N)(=O)CC1CC2(C1)CN(c1ccnc3cnccc13)C2 (stereo not shown) [Example 1, imino(methyl) [[2-(1,7-naphthyridin-4-yl)-2-azaspiro[3.3]heptan-6-yl]methyl]-lambda6-sulfanone]
< 10 nM | COc1nccc2c(N3CC(CCCS(C)(=N)=O)C3)ccnc12 (stereo not shown) [Example 3, imino (3-(1-(8-methoxy-1,7-naphthyridin-4-yl)azetidin-3-yl)propyl)(methyl)-lambda6-sulfanone]
< 10 nM | COc1nccc2c(N3CCC(O)(CS(=N)(=O)C4CC4)CC3)ccnc12 (stereo not shown) [Example 4, cyclopropyl((4-hydroxy-1-(8-methoxy-1,7-naphthyridin-4-yl)piperidin-4-yl)-methyl) (imino)-lambda6-sulfanone]
10 to 100 nM | CS(=N)(=O)c1ccc(COc2ccnc3cnccc23)cc1 (stereo not shown) [Example 7]
10 to 100 nM | COc1nccc2c(OCc3cccc([S@](=N)(=O)C4CC4)c3)ccnc12 [Example 17a, (R)-Cyclopropyl(imino)(3-(((8-methoxy-1,7-naphthyridin-4-yl)oxy)methyl)phenyl)-lambda6-sulfanone]
< 10 nM | COc1nccc2c(N3CCC4(C3)CN(S(C)(=N)=O)C4)ccnc12 (stereo not shown) [Example 44, 8-methoxy-4-(2-(S-methylsulfonimidoyl)-2,6-diazaspiro(3.4)octan-6-yl)-1,7-naphthyridine]
< 10 nM | COc1nccc2c(N3CC4(CCN(S(C)(=N)=O)C4)C3)ccnc12 (stereo not shown) [Example 45, 8-methoxy-4-(6-(S-methylsulfonimidoyl)-2,6-diazaspiro(3.4)octan-2-yl)-1,7-naphthyridine]
< 10 nM | CCOc1nccc2c(N3CCC(O)(CS(C)(=N)=O)CC3)ccnc12 (stereo not shown) [Example 46, ((1-(8-ethoxy-1,7-naphthyridin-4-yl)-4-hydroxypiperidin-4-yl)methyl) (imino)-(methyl)-lambda6-sulfanone]
< 10 nM | COc1nccc2c(Oc3ccc(S(C)(=N)=O)cc3)ccnc12 (stereo not shown) [Example 50, imino (4-((8-methoxy-1,7-naphthyridin-4-yl)oxy)phenyl)(methyl)-lambda6-sulfanone]
100 to 10000 nM | COc1nccc2c(Oc3cccc(S(C)(=N)=O)c3)ccnc12 (stereo not shown) [Example 51, imino (3-((8-methoxy-1,7-naphthyridin-4-yl)oxy)phenyl)(methyl)-lambda6-sulfanone]
10 to 100 nM | CS(=N)(=O)CC1(O)CCN(c2ccnc3c(OC4CC4)nccc23)CC1 (stereo not shown) [Example 52, ((1-(8-cyclopropoxy-1,7-naphthyridin-4-yl)-4-hydroxypiperidin-4-yl)methyl) (imino)(methyl)-lambda6-sulfanone]
100 to 10000 nM | CN=S(C)(=O)N1CCC2(CCN(c3ccnc4c(OC)nccc34)C2)CC1 (stereo not shown) [Example 53, ((2-(8-methoxy-1,7-naphthyridin-4-yl)-2,8-diazaspiro(4.5)decan-8-yl)(methyl)oxo-lambda6-sulfanylidene)(methyl)amine]
100 to 10000 nM | CN=S(C)(=O)N1CCC2(CCN(c3ccnc4c(OC)nccc34)C2)C1 (stereo not shown) [Example 54, ((7-(8-methoxy-1,7-naphthyridin-4-yl)-2,7-diazaspiro(4.4)nonan-2-yl)(methyl)oxo-lambda6-sulfanylidene)(methyl)amine]
100 to 10000 nM | CN=S(=O)(c1cccc(COc2ccnc3c(OC)nccc23)c1)C1CC1 (stereo not shown) [Example 55, cyclopropyl(3-(((8-methoxy-1,7-naphthyridin-4-yl)oxy)methyl)phenyl)(methylimino)-lambda6-sulfanone]
100 to 10000 nM | CN=S(=O)(c1cccc(COc2ncnc3c(OC)nccc23)c1)C1CC1 (stereo not shown) [Example 56, cyclopropyl(3-(((8-methoxypyrido[3,4-d]pyrimidin-4-yl)oxy)methyl)phenyl)-(methylimino)-lambda6-sulfanone]
< 10 nM | CN=S(C)(=O)CC1(O)CCN(c2ccnc3c(OC)nccc23)CC1 (stereo not shown) [Example 57, ((4-hydroxy-1-(8-methoxy-1,7-naphthyridin-4-yl)piperidin-4-yl)methyl)(methyl)-(methylimino)-lambda6-sulfanone]
100 to 10000 nM | CN=S(C)(=O)CC1CC2(C1)CN(c1ccnc3c(OC)nccc13)C2 (stereo not shown) [Example 58, ((2-(8-methoxy-1,7-naphthyridin-4-yl)-2-azaspiro(3.3)heptan-6-yl)methyl-methyl)(methylimino)-lambda6-sulfanone]
< 10 nM | COc1nccc2c(OCc3cc(S(=N)(=O)C4CC4)ccc3F)ccnc12 (stereo not shown) [Example 59, cyclopropyl(4-fluoro-3-(((8-methoxy-1,7-naphthyridin-4-yl)oxy)methyl)-phenyl) (imino)-lambda6-sulfanone]
100 to 10000 nM | N=S(=O)(c1cccc(COc2ccnc3c(OC4CC4)nccc23)c1)C1CC1 (stereo not shown) [Example 60, (3-(((8-cyclopropoxy-1,7-naphthyridin-4-yl)oxy)methyl)phenyl)-(cyclopropyl) (imino)-lambda6-sulfanone]
100 to 10000 nM | CC(C)Oc1nccc2c(OCc3cccc(S(=N)(=O)C4CC4)c3)ccnc12 (stereo not shown) [Example 61, cyclopropyl(imino) (3-(((8-isopropoxy-1,7-naphthyridin-4-yl)oxy)methyl)phenyl)-lambda6-sulfanone]
100 to 10000 nM | CCCOc1nccc2c(OCc3cccc(S(=N)(=O)C4CC4)c3)ccnc12 (stereo not shown) [Example 62, cyclopropyl(imino) (3-(((8-propoxy-1,7-naphthyridin-4-yl)oxy)methyl)phenyl)-lambda6-sulfanone]
10 to 100 nM | CS(=N)(=O)CCC1(O)CCN(c2ccnc3c(OCF)nccc23)CC1 (stereo not shown) [Example 63, (2-(1-(8-(fluoromethoxy)-1,7-naphthyridin-4-yl)-4-hydroxypiperidin-4-yl)ethyl)-(imino)(methyl)-lambda6-sulfanone]
< 10 nM | CS(=N)(=O)CCC1CCN(c2ccnc3c(OCF)nccc23)CC1 (stereo not shown) [Example 65, (2-(1-(8-(fluoromethoxy)-1,7-naphthyridin-4-yl)piperidin-4-yl)ethyl)-(imino)(methyl)-lambda6-sulfanone]
